Laboratory results reported in PubChem BioAssay AID192 (DTP/NCI, 2004).
Inconclusive results and toxic doses are left out. Rule for the calls: active = survival T/C of 150% or more; inactive = T/C below 125% in these data.

Test system: BDF1 mice, B16 melanoma ip, median survival T/C
Experiment: NCI In Vivo Anticancer Drug Screen. Data for tumor model B16 Melanoma (intraperitoneal) in B6D2F1 (BDF1) mice
Details: endpoint: median survival time, higher = longer survival
In short: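 The ratio T/C compares compound-treated mice with vehicle-treated controls, using survival or tumor size as the endpoint in a transplantable tumor model.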

[1] = dose: 100.0 mg/kg/injection, schedule: Q01DX009 (ip), vehicle: Klucel (hydroxypropylcellulose) (HPC)
[2] = dose: 100.0 mg/kg/injection, schedule: Q04DX003 (ip), vehicle: Klucel (hydroxypropylcellulose) (HPC)
[3] = dose: 200.0 mg/kg/injection, schedule: Q01DX009 (ip), vehicle: Klucel (hydroxypropylcellulose) (HPC)
[4] = dose: 200.0 mg/kg/injection, schedule: Q04DX003 (ip), vehicle: Klucel (hydroxypropylcellulose) (HPC)
[5] = dose: 400.0 mg/kg/injection, schedule: Q01DX009 (ip), vehicle: Klucel (hydroxypropylcellulose) (HPC)
[6] = dose: 400.0 mg/kg/injection, schedule: Q04DX003 (ip), vehicle: Klucel (hydroxypropylcellulose) (HPC)
[7] = dose: 12.5 mg/kg/injection, schedule: Q01DX009 (ip), vehicle: saline
[8] = dose: 25.0 mg/kg/injection, schedule: Q01DX009 (ip), vehicle: saline
[9] = dose: 50.0 mg/kg/injection, schedule: Q01DX009 (ip), vehicle: saline
[10] = dose: 100.0 mg/kg/injection, schedule: Q01DX009 (ip), vehicle: saline

Measured: T/C

CCOC(=O)NC(CC)CO (centres undefined)
inactive: [1] 100 % of control | [2] 90 % of control | [3] 97 % of control | [4] 100 % of control | [5] 102 % of control | [6] 95 % of control

O=C(CC(O)(C(F)(F)F)C(F)(F)F)c1cccc2ccccc12
inactive: [2] 90 % of control | [4] 95 % of control | [6] 102 % of control

O=C(NC(CSC(=O)OCc1ccccc1)C(=O)Oc1ccc([N+](=O)[O-])cc1)OCc1ccccc1 (centres undefined)
inactive: dose: 50.0 mg/kg/injection, schedule: Q01DX009 (ip), vehicle: Klucel (hydroxypropylcellulose) (HPC) 105 % of control | [3] 100 % of control

COc1cc2ccc3c[n+]4ccccc4cc3c2cc1OC
inactive: dose: 25.0 mg/kg/injection, schedule: Q04DX009 (ip), vehicle: Klucel (hydroxypropylcellulose) (HPC) 97 % of control | dose: 50.0 mg/kg/injection, schedule: Q04DX009 (ip), vehicle: Klucel (hydroxypropylcellulose) (HPC) 93 % of control | dose: 100.0 mg/kg/injection, schedule: Q04DX009 (ip), vehicle: Klucel (hydroxypropylcellulose) (HPC) 89 % of control | dose: 150.0 mg/kg/injection, schedule: Q04DX009 (ip), vehicle: Klucel (hydroxypropylcellulose) (HPC) 95 % of control

O=C(O)C(CSC(c1ccccc1)c1ccccc1)NC(=O)C(c1ccccc1)c1ccccc1 (centres undefined)
inactive: [2] 102 % of control | [4] 105 % of control | [6] 92 % of control

C#CC(OC(=O)NC1CCCCC1)(c1ccccc1)c1ccccc1
inactive: dose: 6.25 mg/kg/injection, schedule: Q01DX009 (ip), vehicle: saline with Tween-80 105 % of control | dose: 12.5 mg/kg/injection, schedule: Q01DX009 (ip), vehicle: saline with Tween-80 100 % of control | dose: 25.0 mg/kg/injection, schedule: Q01DX009 (ip), vehicle: saline with Tween-80 113 % of control

CN1CCN=C1c1ccc(NC(=O)c2ccc(C(=O)Nc3ccc(C4=NCCN4C)cc3)c(N)c2)cc1
inactive: dose: 1.25 mg/kg/injection, schedule: Q01DX009 (ip), vehicle: saline 115 % of control | dose: 1.25 mg/kg/injection, schedule: Q04DX003 (ip), vehicle: saline 89 % of control | dose: 2.5 mg/kg/injection, schedule: Q01DX009 (ip), vehicle: saline 117 % of control | dose: 2.5 mg/kg/injection, schedule: Q04DX003 (ip), vehicle: saline 94 % of control | dose: 5.0 mg/kg/injection, schedule: Q01DX009 (ip), vehicle: saline 115 % of control | dose: 5.0 mg/kg/injection, schedule: Q04DX003 (ip), vehicle: saline 100 % of control

CCC(=O)C(CC)c1ccc(OC)cc1OC (centres undefined)
inactive: [1] 96 % of control | [3] 103 % of control | [5] 100 % of control

C#CCC1(OC(N)=O)CCCCC1
inactive: dose: 6.25 mg/kg/injection, schedule: Q04DX003 (ip), vehicle: Klucel (hydroxypropylcellulose) (HPC) 99 % of control | [7] 104 % of control | dose: 12.5 mg/kg/injection, schedule: Q04DX003 (ip), vehicle: Klucel (hydroxypropylcellulose) (HPC) 97 % of control | [8] 100 % of control | dose: 25.0 mg/kg/injection, schedule: Q04DX003 (ip), vehicle: Klucel (hydroxypropylcellulose) (HPC) 97 % of control | [9] 89 % of control | dose: 50.0 mg/kg/injection, schedule: Q04DX003 (ip), vehicle: Klucel (hydroxypropylcellulose) (HPC) 98 % of control | [10] 87 % of control | [2] 103 % of control | [4] 95 % of control

COc1cc2c(cc1OC)C(OC)N(C)c1c-2ccc2cc(OC)c(OC)cc12 (centres undefined)
inactive: dose: 37.5 mg/kg/injection, schedule: Q01DX009 (ip), vehicle: Klucel (hydroxypropylcellulose) (HPC) 98 % of control | dose: 75.0 mg/kg/injection, schedule: Q01DX009 (ip), vehicle: Klucel (hydroxypropylcellulose) (HPC) 95 % of control | dose: 150.0 mg/kg/injection, schedule: Q01DX009 (ip), vehicle: Klucel (hydroxypropylcellulose) (HPC) 100 % of control | dose: 300.0 mg/kg/injection, schedule: Q01DX009 (ip), vehicle: Klucel (hydroxypropylcellulose) (HPC) 100 % of control

Cc1cn(C2CC(F)C(CO)O2)c(=O)[nH]c1=O (centres undefined)
inactive: dose: 6.25 mg/kg/injection, schedule: Q01DX009 (ip), vehicle: saline 108 % of control | [7] 103 % of control | [8] 110 % of control | [9] 115 % of control | [10] 97 % of control
